System: variegating white reporter transgene flies (C3/2L, BL2/Y)
Test: P9 fed to flies with variegating white reporter transgene
Assay type: in vivo, Drosophila melanogaster
Details: transgene at the basis of chromosome 2L; data not shown
Description: Although we favor the possibility that P9 and MATH20 reduce the spreading of heterochromatin toward w^m4 through long-range effects, we cannot completely rule out the possibility that a local binding site near the white gene (a local SAR) is involved. We attempted to address this issue by studying the effect of P9 on two different variegating miniwhite reporter genes called C3/2L and BL2/Y (Lu et al., 1996; Wallrath and Elgin, 1995). […] Nevertheless, we consider a local-acting mode less likely; the enormous target size of satellite III, 11 Mb versus 0.5 kb for a typical SAR, favors a long-range spreading model.

## CN(C)CCCNC(=O)CCNC(=O)c1cc(NC(=O)c2cc(NC(=O)c3cc(NC(=O)CCNC(=O)c4cc(NC(=O)c5cc(NC(=O)c6cccn6C)cn5C)cn4C)cn3C)cn2C)cn1C [Compound P9, PyPyPy-β-PyPyPy-β-Dp]
  suppression of PEV of a variegating white reporter transgene: did not suppress PEV

— US20030157715A1, “Modulation of chromosome function by chromatin remodeling agents” (priority 2000, published 2003)
